Results taken from patent US11371097B2, “Articles for diagnosis of liver fibrosis” (THE GOVERNMENT OF THE UNITED STATES, as represented by THE …, priority 2015, dated 2022).
Several values for one entry are separate records, joined by “and”; a condition that tells them apart may be missing. Equal entries are not always repeated.

Legend:
[1] = format: in vivo, Male Sprague-Dawley rats; conditions: rat, in vivo
[2] = system: 67 genes on the fibrosis gene panel; experiment: Multiplexed fibrosis gene panel (QuantiGene 2.0 Plex / Bioplex) on liver RNA; conditions: liver RNA, individual animals; Carbon Tetrachloride 200, Bromobenzene 785, Dexamethasone 1 mg/kg
Protocol: mRNA is isolated and purified from lysed tissue biopsy specimens. The target mRNA is incubated with beads conjugated to capture probes (each probe is an oligonucleotides specific for one of the genes in the panel). The target is hybridized to the probe by a capture extender-capture probe interaction. Specific mRNA targets hybridize overnight to the respective beads. The signal is amplified by incubating mRNA-capture probe pairs by affixing an amplifier affixed to a biotinylated label probe. Streptavidin-conjugated phycoerythrin (SAPE) is bound to the biotinylated probe to amplify the signal. The signal is detected and quantified by Bioplex suspension array instrumentation, which measures the SAPE fluorescence signal proportional to the amount of mRNA transcripts captured by the bead.
Candidate genes identified by co-expression modules and pathway/network approaches were fabricated into a custom gene panel using a commercial source (the QuantiGene 2.0 Plex assay, Affymetrix, Santa Clara, Calif.). A total of 71 genes plus 3 housekeeping genes were selected. Using 150 ng RNA input, samples were processed following manufacturer's instructions for purified RNA with use of the HandHeld Magnetic Plate Washer. Plates were read immediately following the final wash using the BioPlex 200 instrument (BioRad, Hercules, Calif.). The following parameters were set on the BioPlex instrument: sample size=100 μL; DD Gate=5,000-25,000; Timeout=45 sec; Bead Event/Bead Region=100.
For each sample, the average signal intensity was determined as recommended by the manufacturer. Duplicates were averaged. The average background signal for each gene was subtracted. Assay limit of detection was determined by adding three standard deviations of assay background signals to the average intensity of the background control wells. All intensities lower than the limit of detection for each probe was set to one unit above the probe's limit of detection. Probes with all intensities below the assay limit of detection were removed from the final analysis. The test gene signal was divided by the average intensities of the three normalization genes (Gapdh, Hprt1, Ppib). For each test gene, the fold change was calculated by dividing the normalized value for the treated samples by the normalized value of the vehicle-treated controls. Fold changes were plotted as log2 fold change. Gene expression data were imported into Partek Genomics Suite 6.0 (Partek, Inc., St. Louis, Mo.). Principal component analysis was used for multivariate interpretation to determine sources of variation across sample groups (Joliffe I T, Morgan B J. Principal component analysis and exploratory factor analysis. Statistical methods in medical research 1992; 1(1):69-95). Differentially expressed genes were determined by analysis of variance (ANOVA) with contrasts, setting the ANOVA factors as toxicant and the histopathological endpoint of fibrosis (any score >0). ANOVA variables were fibrosis score 0 (none) vs. score of >0 (minimal, mild, moderate, and marked). For hierarchical biclustering, differentially expressed genes were standardized by setting the genes expressed to a mean of zero and scaling to a standard deviation of one. Euclidean geometry was used to cluster row and column dissimilarity using a method of average linkage.
Chemical-dose groups were down-selected based on histopathology to conform to the 96-well assay format of the multiplexed panel of presumptive fibrosis genes. Three of the four dose groups were evaluated for the fibrogenic chemicals allyl alcohol and 4,4′-methylenedianiline. A single dose was selected with group-matched vehicle controls for each of the remaining chemicals. […] The highest dose of bromobenzene was selected because the vacuolation pathology was only observed at this dose.
Isolated liver RNA was incubated with microbead-bound capture probes specific for the 71 presumptive fibrogenic genes and three housekeeping normalization genes.

liver = format: in vivo, Male Sprague-Dawley rats

Q: Which Body weight change [1] does the source give for `C[C@@H]1C[C@H]2[C@@H]3CCC4=CC(=O)C=C[C@]4(C)[C@@]3(F)[C@@H](O)C[C@]2(C)[C@@]1(O)C(=O)CO` [dexamethasone] here?
A: Body weight loss occurred at all doses

Q: And the “Body weight gain over the five experimental dosing days” value [1]?
A: decrease in body weight gain

Q: What about the “Differential Expression of A2m” value [2] of the same compound?
A: −1.370 and −0.649 and −0.615 and −0.252

Q: And the “Differential Expression of Angptl3” value [2]?
A: 0.029 and −0.467 and −0.241

Q: And the “Differential Expression of Anxa2” value [2]?
A: 0.519 and 0.194 and −0.132 and 0.293

Q: What about the “Differential Expression of Apoc” value [2] of the same compound?
A: −0.250 and −0.067 and −0.469 and −0.542

Q: What about the “Differential Expression of Arf6” value [2] of the same compound?
A: −0.268 and −0.346 and −0.401 and 0.005

Q: What about the “Differential Expression of Arpc1b” value [2] of the same compound?
A: −1.391 and −2.770 and −5.994 and −0.172

Q: And the “Differential Expression of Arrb1” value [2]?
A: −0.840 and −2.152 and −3.043 and 0.703

Q: What about the “Differential Expression of C1qb” value [2] of the same compound?
A: −0.174 and −0.655 and −0.257 and −0.222

Q: And the “Differential Expression of CD9” value [2]?
A: 0.155 and −0.656 and −0.280 and 0.387

Q: And the “Differential Expression of CD53” value [2]?
A: −0.716 and −3.901 and −5.862 and 0.006

Q: And the “Differential Expression of CP” value [2]?
A: −0.134 and −0.634 and −0.952 and −0.558

Q: And the “Differential Expression of Capg” value [2]?
A: −0.558 and −0.744 and −0.772 and −0.404

Q: And the “Differential Expression of Ccl2” value [2]?
A: −0.272 and 0.250 and 0.043 and 1.019

Q: What about the “Differential Expression of Col1a1” value [2] of the same compound?
A: −4.640 and −3.775 and −5.473 and −0.928

Q: What about the “Differential Expression of Col1a2” value [2] of the same compound?
A: −0.960 and −1.057 and −2.208 and −1.081

Q: What about the “Differential Expression of Col4a1” value [2] of the same compound?
A: −1.039 and −1.035 and −1.397 and −0.880

Q: What about the “Differential Expression of Col5a2” value [2] of the same compound?
A: −0.407 and −0.910 and −2.382 and 0.311

Q: What about the “Differential Expression of Ctgf” value [2] of the same compound?
A: −0.755 and 0.747 and −0.663 and 0.405

Q: What about the “Differential Expression of Cxcl1” value [2] of the same compound?
A: 0.104 and 1.127 and 0.364 and 0.097

Q: What about the “Differential Expression of Cxcl12” value [2] of the same compound?
A: −1.808 and −3.742 and −2.144 and −1.869

Q: What about the “Differential Expression of Cxcl16” value [2] of the same compound?
A: −0.537 and −4.885 and 0.714

Q: What about the “Differential Expression of Cyba” value [2] of the same compound?
A: −0.998 and −1.793 and −1.244 and −0.956

Q: And the “Differential Expression of Dsc2” value [2]?
A: −0.209 and −0.593 and −0.466 and −0.248

Q: And the “Differential Expression of Fam102b” value [2]?
A: −0.462 and −0.124 and −0.822 and −0.262

Q: What about the “Differential Expression of Fam105a” value [2] of the same compound?
A: −0.295 and 0.195 and −0.809 and −0.294

Q: What about the “Differential Expression of Fbn1” value [2] of the same compound?
A: −1.213 and −1.784 and −2.160 and −1.736

Q: And the “Differential Expression of Fn1” value [2]?
A: 0.397 and 0.181 and −0.334 and −0.170

Q: And the “Differential Expression of Fstl1” value [2]?
A: −1.085 and −1.346 and −1.183 and −0.931

Q: What about the “Differential Expression of Fxyd5” value [2] of the same compound?
A: −0.247 and −0.412 and −0.305

Q: What about the “Differential Expression of Gpnmb” value [2] of the same compound?
A: −0.018 and 1.304 and 0.968 and 1.447

Q: And the “Differential Expression of Igfals” value [2]?
A: −0.678 and −2.820 and −1.013 and −1.310

Q: And the “Differential Expression of Igfbp1” value [2]?
A: 1.132 and 1.740 and 0.780 and 0.489

Q: What about the “Differential Expression of Igfbp2” value [2] of the same compound?
A: −0.258 and −0.949 and −1.156 and −0.041

Q: What about the “Differential Expression of Igfbp3” value [2] of the same compound?
A: −1.125 and −1.454 and −2.523 and −1.663

Q: What about the “Differential Expression of Itga1” value [2] of the same compound?
A: −2.088 and −3.379 and −2.849 and −1.903

Q: And the “Differential Expression of Itgb2” value [2]?
A: −1.330 and −2.265 and −1.982 and −0.802

Q: And the “Differential Expression of Lame2” value [2]?
A: −0.132 and 0.260 and −1.038 and 0.536

Q: What about the “Differential Expression of Lbp” value [2] of the same compound?
A: 0.344 and −0.042 and 0.261 and −0.020

Q: What about the “Differential Expression of Len2” value [2] of the same compound?
A: −0.470 and 0.418 and 0.883 and 0.535

Q: And the “Differential Expression of Lgals1” value [2]?
A: 0.458 and −4.140 and −0.346 and 0.583

Q: What about the “Differential Expression of Lgals3” value [2] of the same compound?
A: 0.011 and 0.320 and 0.370 and 0.526

Q: What about the “Differential Expression of Lgals3bp” value [2] of the same compound?
A: −1.477 and −0.782 and −1.281 and −0.669

Q: And the “Differential Expression of Lox” value [2]?
A: 0.278 and 0.412 and −0.164

Q: What about the “Differential Expression of Lrp1” value [2] of the same compound?
A: −0.206 and −0.631 and −0.863 and −0.371

Q: And the “Differential Expression of Lum” value [2]?
A: 0.593 and 0.401 and −0.997 and −0.078

Q: And the “Differential Expression of Mmp2” value [2]?
A: −0.245 and −1.273 and −0.990 and −0.583

Q: And the “Differential Expression of Nid1” value [2]?
A: −1.271 (2×) and −1.374 and −1.155

Q: And the “Differential Expression of Pcolce” value [2]?
A: −1.293 and −1.196 and −1.572 and −0.246

Q: And the “Differential Expression of Pkm2” value [2]?
A: −0.668 and −0.611 and −0.735 and −0.472

Q: And the “Differential Expression of Plat” value [2]?
A: 0.103 and 0.075 and −0.461 and −0.335

Q: What about the “Differential Expression of Plau” value [2] of the same compound?
A: −0.719 and −2.088 and −1.424 and −0.095

Q: What about the “Differential Expression of Plod2” value [2] of the same compound?
A: −0.065 and 0.269 and −0.568 and −0.077

Q: And the “Differential Expression of RT1-DMa” value [2]?
A: 3.152 and 2.497 and 3.371 and 2.417

Q: And the “Differential Expression of RT1-Da” value [2]?
A: −4.927 and −7.563 and −4.272 and −3.443

Q: And the “Differential Expression of S100A6” value [2]?
A: 0.650 and −0.047 and 0.843 and 0.695

Q: What about the “Differential Expression of S100A11” value [2] of the same compound?
A: −0.377 and −0.570 and −0.732 and −0.465

Q: And the “Differential Expression of Serpine1” value [2]?
A: 0.251 and 1.560 and 0.110 and 0.038

Q: What about the “Differential Expression of Serping1” value [2] of the same compound?
A: 0.154 and 0.026 and −0.228 and 0.065

Q: And the “Differential Expression of Slc25a24” value [2]?
A: −0.387 and −0.565 and −0.427

Q: What about the “Differential Expression of Sod2” value [2] of the same compound?
A: −0.398 and −0.428 and −0.371 and −0.367

Q: What about the “Differential Expression of TagIn2” value [2] of the same compound?
A: −0.486 and −0.918 and −0.563 and −0.566

Q: What about the “Differential Expression of Tgfb1” value [2] of the same compound?
A: −1.193 and −1.526 and −1.328 and −1.429

Q: And the “Differential Expression of Timp1” value [2]?
A: 0.026 and 0.464 and −0.134 and 1.004

Q: And the “Differential Expression of Vhl” value [2]?
A: −0.300 and −1.037 and −0.787 and 0.504

Q: What about the “Differential Expression of Vim” value [2] of the same compound?
A: −0.856 and −1.292 and −1.277

Q: What about the “Differential Expression of Vtn” value [2] of the same compound?
A: −0.111 and −0.294 and −0.579 and −0.572

Q: And the Tissue necrosis (liver; highest dose (300 mg/kg))?
A: moderate tissue necrosis affecting >60-80% of the tissue in two animals

Q: And the “Combined histopathological scores as percent of animals with pathology” value (liver; rat, in vivo)?
A: dose-dependent increase in severe pathology

Q: And the Cytoplasmic Alteration (liver; rat, in vivo)?
A: marked cytoplasmic alteration characteristic of glycogen accumulation

Q: And the “Histopathological evidence of vacuolation and/or glycogen accumulation” value (liver; rat, in vivo)?
A: correlated with histopathological evidence of vacuolation and/or glyocgen accumulation
